Where two headings read alike, the source gives them in different places.
Columns and labels:
androgen-receptor = experiment: DHT-induced (KLK3, FKBP5) and DHT-repressed (ZFP36L1) transcripts in LAPC4 cells; type: cell-based; details: Compound IE up to 10 μM
S. haematobium = S. haematobium infections in hamsters; type: in vivo; details: single 50 mg/kg oral dose
S. japonicum = S. japonicum infections in hamsters; type: in vivo
[1] = In vitro metabolic stability, human liver microsomes; type: in vitro ADME; details: human liver microsomes; read-out: h CLint
Experimental: (§1) In Vitro Metabolic Stability. As described by Charman et al. (2020), metabolic stability assays were performed by incubating test compounds in liver microsomes at 37° C. and 0.4 mg/mL protein concentration. The metabolic reaction was initiated by the addition of an NADPH-regenerating system and quenched at various time points over a 60 min incubation period by the addition of acetonitrile containing diazepam as internal standard. Control samples (containing no NADPH) were included (and quenched at 2, 30 and 60 min) to monitor for potential degradation in the absence of cofactor.

[2] = In vitro metabolic stability, mouse liver microsomes; type: in vitro ADME; details: mouse liver microsomes; read-out: m CLint
Experimental: as §1

[3] = In vitro metabolic stability, rat microsomes; type: in vitro ADME; details: liver microsomes
Experimental: as §1

[4] = In vitro metabolic stability, dog microsomes; type: in vitro ADME; details: liver microsomes
Experimental: as §1

[5] = Mouse exposure / pharmacokinetic studies; type: in vivo, mice; details: for half-life / clearance: iv, 1 mg/kg
[6] = mice, oral, mean dose 6.73 mg/kg
[7] = mice, oral, mean dose 13.5 mg/kg
[8] = mice, oral, mean dose 26.3 mg/kg
[9] = mice, oral, mean dose 55.6 mg/kg
[10] = mice, oral, mean dose 99.7 mg/kg

[2H]C([2H])([2H])C1(C([2H])([2H])[2H])NC(=O)N(c2ccc(F)c(C(C)(F)F)c2)C1=O [Compound IE, 3-(3-(1,1-difluoroethyl)-4-fluorophenyl)-5,5-bis(methyl-d3)imidazolidine-2,4-dione]
levels of DHT-induced (KLK3, FKBP5) and DHT-repressed (ZFP36L1) transcripts (androgen-receptor): no effect
clearance of S. haematobium infections (S. haematobium): completely cleared
ED50 (S. japonicum; Schistosoma japonicum, oral): 8.5 mg/kg
clearance of S. japonicum infections (S. japonicum; single 25 mg/kg oral dose): completely cleared
microsomal CLint [1]: < 7 µL/min/mg
microsomal CLint [2]: < 7 µL/min/mg
microsomal CLint [3]: < 7 µL/min/mg
microsomal CLint [4]: < 7 µL/min/mg
half-life ([5]; male, Swiss outbred, mouse, in vivo, IV 1 mg/kg, mice, read-out: apparent half-life (converted)): 30 h
clearance ([5]; male, Swiss outbred, mouse, in vivo, IV 1 mg/kg, mice, read-out: blood clearance): 0.59 mL/min/kg
half-life ([5]; male, Swiss outbred, mouse, in vivo, mice, IV, mean dose 1.0 mg/kg, read-out: Apparent t1/2 (converted)): 38 h
clearance ([5]; male, Swiss outbred, mouse, in vivo, mice, IV, mean dose 1.0 mg/kg, read-out: Plasma CL): 0.491 mL/min/kg
bioavailability ([5]; male, Swiss outbred, mouse, in vivo, po, mice, all doses 6.25 to 100 mg/kg, read-out: apparent oral bioavailability): ≥ 80%
AUC(0-t) ([5]; male, Swiss outbred, mouse, in vivo, 100 mg/kg PO in mice, read-out: AUC0-last): 1800 µg·h/mL
Cmax ([5]; male, Swiss outbred, mouse, in vivo, 100 mg/kg PO in mice, read-out: Cmax): 41000 ng/mL
Vd ([5]; male, Swiss outbred, mouse, in vivo, IV 1 mg/kg, mice, read-out: volume of distribution): 1.59 L/kg
AUC(0-t) ([5]; male, Swiss outbred, mouse, in vivo, mice, IV, mean dose 1.0 mg/kg, read-out: Plasma AUC0-48 h): 28.2 µg·h/mL
AUC(0-inf) ([5]; male, Swiss outbred, mouse, in vivo, mice, IV, mean dose 1.0 mg/kg, read-out: Plasma AUC0-inf): 33.9 µg·h/mL
Tmax ([5]; male, Swiss outbred, mouse, in vivo, mice, oral, mean dose 6.73 mg/kg): 3 h
AUC(0-t) ([5]; male, Swiss outbred, mouse, in vivo, mice, oral, mean dose 6.73 mg/kg, read-out: Plasma AUC0-48 h): 145 µg·h/mL
Cmax ([5]; male, Swiss outbred, mouse, in vivo, mice, oral, mean dose 6.73 mg/kg, read-out: Plasma Cmax): 3760 ng/mL
Tmax ([5]; male, Swiss outbred, mouse, in vivo, mice, oral, mean dose 13.5 mg/kg): 7 h
AUC(0-t) ([5]; male, Swiss outbred, mouse, in vivo, mice, oral, mean dose 13.5 mg/kg, read-out: Plasma AUC0-48 h): 320 µg·h/mL
Cmax ([5]; male, Swiss outbred, mouse, in vivo, mice, oral, mean dose 13.5 mg/kg, read-out: Plasma Cmax): 8590 ng/mL
Tmax ([5]; male, Swiss outbred, mouse, in vivo, mice, oral, mean dose 26.3 mg/kg): 7 h
AUC(0-t) ([5]; male, Swiss outbred, mouse, in vivo, mice, oral, mean dose 26.3 mg/kg, read-out: Plasma AUC0-48 h): 607 µg·h/mL
Cmax ([5]; male, Swiss outbred, mouse, in vivo, mice, oral, mean dose 26.3 mg/kg, read-out: Plasma Cmax): 14400 ng/mL
Tmax ([5]; male, Swiss outbred, mouse, in vivo, mice, oral, mean dose 55.6 mg/kg): 3 h
AUC(0-t) ([5]; male, Swiss outbred, mouse, in vivo, mice, oral, mean dose 55.6 mg/kg, read-out: Plasma AUC0-48 h): 1130 µg·h/mL
Cmax ([5]; male, Swiss outbred, mouse, in vivo, mice, oral, mean dose 55.6 mg/kg, read-out: Plasma Cmax): 28200 ng/mL
Tmax ([5]; male, Swiss outbred, mouse, in vivo, mice, oral, mean dose 99.7 mg/kg): 7 h
AUC(0-t) ([5]; male, Swiss outbred, mouse, in vivo, mice, oral, mean dose 99.7 mg/kg, read-out: Plasma AUC0-48 h): 1800 µg·h/mL
Cmax ([5]; male, Swiss outbred, mouse, in vivo, mice, oral, mean dose 99.7 mg/kg, read-out: Plasma Cmax): 40500 ng/mL
PlasmaVSS ([5]; mice, IV, mean dose 1.0 mg/kg): 1.6 L/kg
Apparent BA [5, 6]: 76%
Plasma AUC0-48 h/Dose [5, 6]: 21.5 (μg*h/mL)/(mg/kg)
Plasma Cmax/Dose [5, 6]: 0.559 (μg/mL)/(mg/kg)
Apparent BA [5, 7]: 84%
Plasma AUC0-48 h/Dose [5, 7]: 23.8 (μg*h/mL)/(mg/kg)
Plasma Cmax/Dose [5, 7]: 0.638 (μg/mL)/(mg/kg)
Apparent BA [5, 8]: 82%
Plasma AUC0-48 h/Dose [5, 8]: 23.1 (μg*h/mL)/(mg/kg)
Plasma Cmax/Dose [5, 8]: 0.547 (μg/mL)/(mg/kg)
Apparent BA [5, 9]: 72%
Plasma AUC0-48 h/Dose [5, 9]: 20.4 (μg*h/mL)/(mg/kg)
Plasma Cmax/Dose [5, 9]: 0.507 (μg/mL)/(mg/kg)
Apparent BA [5, 10]: 64%
Plasma AUC0-48 h/Dose [5, 10]: 18.0 (μg*h/mL)/(mg/kg)
Plasma Cmax/Dose [5, 10]: 0.407 (μg/mL)/(mg/kg)
